Source: paper PMC9715518, “Human and rat microsomal metabolites of N-tert-butoxycarbonylmethamphetamine and its urinary metabolites in rat” (Forensic Toxicology, 2021)
Where “and” joins values, the source holds several entries; their conditions need not be identical. Identical values can stand only once.

Tests used:
[1] = pH 1.5, 37 °C; cited from earlier work
[2] = Rat administration test, urinary excretion
[3] = Microsomal metabolism test, rat liver microsomes
[4] = Microsomal metabolism test, human liver microsomes
[5] = rat no. 1, urine 0–4 h, BocMA 20 mg/kg i.p.
[6] = rat no. 1, urine 4–8 h, BocMA 20 mg/kg i.p.
[7] = rat no. 1, urine 8–24 h, BocMA 20 mg/kg i.p.
[8] = rat no. 1, urine 24–48 h, BocMA 20 mg/kg i.p.
[9] = rat no. 2, urine 0–4 h, BocMA 20 mg/kg i.p.
[10] = rat no. 2, urine 4–8 h, BocMA 20 mg/kg i.p.
[11] = rat no. 2, urine 8–24 h, BocMA 20 mg/kg i.p.
[12] = rat no. 3, urine 0–4 h, BocMA 20 mg/kg i.p.
[13] = rat no. 3, urine 4–8 h, BocMA 20 mg/kg i.p.
[14] = rat no. 3, urine 8–24 h, BocMA 20 mg/kg i.p.
[15] = rat no. 3, urine 24–48 h, BocMA 20 mg/kg i.p.
[16] = rat no. 3, urine 48–72 h, BocMA 20 mg/kg i.p.

CC(Cc1ccccc1)N(C)C(=O)OC(C)(C)C (centres unmarked) [BocMA, N-tert-butoxycarbonylmethamphetamine]
Half-life in model gastric juice solution [1]: 50 min | BocMA absolute amount in urine ([2]; average of 3 rats, urine 0–72 h total, BocMA 20 mg/kg i.p.): 16000 ng | BocMA absolute amount in urine [2, 5]: 87 ng | BocMA concentration in urine [2, 5]: 58 ng/mL | BocMA absolute amount in urine ([2]; rat no. 1, urine 0–72 h total, BocMA 20 mg/kg i.p.): 240 ng | BocMA absolute amount in urine [2, 6]: 8.9 ng | BocMA concentration in urine [2, 6]: 8.9 ng/mL | BocMA absolute amount in urine [2, 7]: 59 ng | BocMA concentration in urine [2, 7]: 7.4 ng/mL | BocMA absolute amount in urine [2, 8]: 84 ng | BocMA concentration in urine [2, 8]: 12 ng/mL | BocMA absolute amount in urine [2, 9]: 190 ng | BocMA concentration in urine [2, 9]: 95 ng/mL | BocMA absolute amount in urine ([2]; rat no. 2, urine 0–72 h total, BocMA 20 mg/kg i.p.): 310 ng | BocMA absolute amount in urine [2, 10]: 78 ng | BocMA concentration in urine [2, 10]: 39 ng/mL | BocMA absolute amount in urine [2, 11]: 44 ng | BocMA concentration in urine [2, 11]: 2.9 ng/mL | BocMA absolute amount in urine [2, 12]: 2700 ng | BocMA concentration in urine [2, 12]: 5400 ng/mL | BocMA absolute amount in urine ([2]; rat no. 3, urine 0–72 h total, BocMA 20 mg/kg i.p.): 15000 ng | BocMA absolute amount in urine [2, 13]: 4400 ng | BocMA concentration in urine [2, 13]: 2200 ng/mL | BocMA absolute amount in urine [2, 14]: 6800 ng | BocMA concentration in urine [2, 14]: 680 ng/mL | BocMA absolute amount in urine [2, 15]: 660 ng | BocMA concentration in urine [2, 15]: 83 ng/mL | BocMA absolute amount in urine [2, 16]: 810 ng | BocMA concentration in urine [2, 16]: 90 ng/mL | Excreted BocMA as the unchanged form, share of the administered quantity ([2]; rat urine over 72 h, average, n = 3): 0.13% | Detection in rat urine (LC–QToF–MS) ([2]; urine 0–72 h, BocMA 20 mg/kg i.p., n = 3): detected in urine from all rats | Incubation time at which peak intensity was highest ([3]; RLM test): 0 min | BocMA degraded ([3]; RLM, first 3 min): 83% | ER (extraction ratio) ([3]; RLM, mean ± SD, n = 3): 0.92 and 0.92 ± 0.01 | CLint (estimated intrinsic clearance) ([3]; RLM, scaled to whole liver, mean ± SD, n = 3): 640 ± 70 mL/min/kg body wt. | CLH (estimated hepatic clearance) ([3]; RLM, well-stirred model without protein binding, mean ± SD, n = 3): 51 ± 1 mL/min/kg body wt. | half-life at 1 μg/mL ([3]; rat, microsomes, pH 7.4): 2 ± 0.2 min | microsomal CLint at 1 μg/mL ([3]; rat, microsomes, pH 7.4): 360 ± 40 µL/min/mg | BocMA degraded ([4]; HLM, first 8 min): 80% | ER (extraction ratio) ([4]; HLM, mean ± SD, n = 3): 0.90 and 0.90 ± 0.01 | CLint (estimated intrinsic clearance) ([4]; HLM, scaled to whole liver, mean ± SD, n = 3): 200 mL/min/kg body wt. and 200 ± 20 mL/min/kg body wt. | CLH (estimated hepatic clearance) ([4]; HLM, well-stirred model without protein binding, mean ± SD, n = 3): 19 ± 1 mL/min/kg body wt. | half-life at 1 μg/mL ([4]; human, microsomes, pH 7.4): 3.2 ± 0.3 min | microsomal CLint at 1 μg/mL ([4]; human, microsomes, pH 7.4): 220 ± 20 µL/min/mg
